From patent publication US7538073B2, “Pyrazoylcarboxanilides as fungicides” (Bayer CropScience AG, priority 2001, dated 2009) come the findings set out here.

This experiment concerns Pyrenophora teres. Kind of experiment: Pyrenophora teres test (barley)/protective. It is filed as in vivo. To be noted: protective, application rate 250 g/ha, evaluation 7 days after inoculation. Here is the method: To produce a suitable preparation of active compound, 1 part by weight of active compound is mixed with the stated amount of solvent and emulsifier, and the concentrate is diluted with water to the desired concentration.
To test for protective activity, young plants are sprayed with the preparation of active compound at the stated application rate. After the spray coating has dried on, the plants are sprayed with a conidia suspension of Pyrenophora teres. The plants remain in an incubation cabin at 20° C. and 100% relative atmospheric humidity for 48 hours.
The plants are then placed in a greenhouse at a temperature of about 20° C. and a relative atmospheric humidity of about 80%.
Evaluation is carried out 7 days after the inoculation. 0% means an efficacy which corresponds to that of the control, whereas an efficacy of 100% means that no infection is observed.

Consider `CCCC(C)c1ccccc1NC(=O)c1c(C)nn(C)c1F` (stereo not shown) [drawing 95], for which the Efficacy in % is given as 100%.
